Measurements from patent publication US4734420A, “Anti-hypertensive agents” (priority 1980, dated 1988).

Assays:
ACE [1] = settings: oral, most patients; cited from earlier work
Human urinary ACE = Human urinary ACE (Homo sapiens, UniProt P12821); experiment: biochemical; settings: read-out: I50 value
Text: The role of ACE in the pathogenesis of hypertension has prompted a search for inhibitors of the enzyme that could act as antihypertensive drugs. See for example U.S. Pat. Nos. 3,891,616, 3,947,575, 4,052,511 and 4,053,651. […]. No. 4,046,889 to Ondetti et al., issued Sept. 6, 1977, and in scientific articles by Cushman, D. W. et al., Biochemistry 16, 5484 (1977), and by Ondetti, M. et al., Science 196, 441 (1977). […]. These factors include the source of enzyme, its purity, the substrate used and its concentration, and the composition of the assay buffer. All I50 data reported herein have been performed with the same assay system and same enzyme (human urinary ACE) and with an approximately 1/2 Km level of substrate and are therefore internally consistent. Discrepancies with data obtained by other workers may be observed. Indeed such discrepancies do exist in the literature, for unknown reasons. See, for example, the I50 values for BPP9a reported by Cushman, D. W., et al., Experientia 29, 1032 (1973) and by Dorer, F. E., et al., Biochim. Biophys. Acta 429, 220 (1976).
The inhibitory potency of N^α -[3-(L-α-glutamylthio)-2-D-methyl-propanoyl]-L-proline in vitro was measured in the following assay. […] The enzyme was assayed in 0.05M Hepes buffer, pH 8.0 containing 0.1M NaCl and 0.75M Na2 SO4. […]

ACE [2] = settings: statement of belief; cited from earlier work

Chain of Human urinary ACE (P12821 30-1232 limits assumed): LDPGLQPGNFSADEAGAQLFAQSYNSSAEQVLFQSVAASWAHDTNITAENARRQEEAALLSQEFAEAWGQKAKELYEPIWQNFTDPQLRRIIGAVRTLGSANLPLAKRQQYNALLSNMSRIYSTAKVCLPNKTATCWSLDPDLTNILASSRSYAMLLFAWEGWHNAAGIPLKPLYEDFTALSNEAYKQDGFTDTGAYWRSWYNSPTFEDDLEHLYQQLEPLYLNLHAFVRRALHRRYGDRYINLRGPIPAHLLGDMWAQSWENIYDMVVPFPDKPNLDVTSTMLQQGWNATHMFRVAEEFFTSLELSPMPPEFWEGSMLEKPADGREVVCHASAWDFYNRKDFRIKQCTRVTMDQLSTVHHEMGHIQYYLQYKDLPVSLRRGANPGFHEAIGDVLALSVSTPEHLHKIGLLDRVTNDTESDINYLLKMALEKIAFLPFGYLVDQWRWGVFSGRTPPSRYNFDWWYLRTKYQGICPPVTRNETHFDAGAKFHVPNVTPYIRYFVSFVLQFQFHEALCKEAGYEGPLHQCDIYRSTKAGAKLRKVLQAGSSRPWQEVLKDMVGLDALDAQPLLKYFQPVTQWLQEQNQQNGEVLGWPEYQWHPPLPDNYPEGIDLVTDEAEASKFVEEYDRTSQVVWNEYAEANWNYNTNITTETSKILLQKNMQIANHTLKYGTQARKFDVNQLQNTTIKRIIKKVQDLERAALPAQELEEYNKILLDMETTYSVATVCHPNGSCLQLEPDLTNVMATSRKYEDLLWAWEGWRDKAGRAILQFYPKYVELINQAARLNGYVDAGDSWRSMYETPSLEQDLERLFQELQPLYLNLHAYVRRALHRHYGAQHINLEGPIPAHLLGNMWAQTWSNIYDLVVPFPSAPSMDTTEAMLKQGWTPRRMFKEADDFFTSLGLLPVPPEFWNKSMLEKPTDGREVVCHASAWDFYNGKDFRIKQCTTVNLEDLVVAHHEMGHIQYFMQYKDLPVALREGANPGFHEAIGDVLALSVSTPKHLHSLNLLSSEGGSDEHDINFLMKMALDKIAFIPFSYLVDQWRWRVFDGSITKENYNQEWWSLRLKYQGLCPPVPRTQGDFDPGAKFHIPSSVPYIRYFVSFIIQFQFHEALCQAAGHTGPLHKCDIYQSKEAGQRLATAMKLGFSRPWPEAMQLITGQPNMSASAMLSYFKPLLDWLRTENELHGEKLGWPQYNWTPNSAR

C[C@H](CS)C(=O)N1CCCC1C(=O)O (stereo in doubt) [SQ14225, D-3-mercapto-2-methylpropanoyl-L-proline]
stability in normal gastric and intestinal environments (ACE [1]): sufficiently stable in the normal gastric and intestinal environments of most patients

C[C@H](CSC(=O)[C@@H](N)CCC(=O)O)C(=O)N1CCC[C@H]1C(=O)O [N^α -[3-(L-α-glutamylthio)-2-D-methyl-propanoyl]-L-proline]
IC50 (Human urinary ACE): 2.1 nM

C[C@H](CSSC[C@@H](C)C(=O)N1CCC[C@H]1C(=O)O)C(=O)N1CCC[C@H]1C(=O)O [disulfide]
inhibitory activity of disulfide (dimer of SQ14225) (ACE [2]): largely inactive as an inhibitor
